From patent US20210115104A1, “AMYLIN ANALOGUES” (Zealand Pharma A/S, priority 2015, published 2021)
Like-named read-outs stand apart in the source and are kept apart here. *1 amine or outer side, *2 acyl side, *3 side chain or, on linkers, in order; H or OH if unused. Where a SMILES comes first, the peptide text is derived from it. Bridges are numbered along the chain shown (N, C = ends). [ ]: non-standard residue; d: D form. The star is where a group is joined. C20 diacid = O=C(O)CCCCCCCCCCCCCCCCCCC(=O)*; γGlu = O=C(O)[C@H](CCC(=O)[*:2])N[*:1]; Hyp = O=C(O)[C@@H]1C[C@@H](O)CN1; NMeI = CC[C@H](C)[C@H](NC)C(=O)O; Aad = N[C@@H](CCCC(=O)O)C(=O)O; Sar = CNCC(=O)O

How the values were obtained:
[1] = biological target: T1, human calcitonin receptor (hCTR2) (Homo sapiens, UniProt P30988); assay: hCTR2 cAMP assay (AlphaScreen) in COS7 cells; format: cell-based
T1 construct: expressed in transfected cells
T1 sequence (P30988 25-474): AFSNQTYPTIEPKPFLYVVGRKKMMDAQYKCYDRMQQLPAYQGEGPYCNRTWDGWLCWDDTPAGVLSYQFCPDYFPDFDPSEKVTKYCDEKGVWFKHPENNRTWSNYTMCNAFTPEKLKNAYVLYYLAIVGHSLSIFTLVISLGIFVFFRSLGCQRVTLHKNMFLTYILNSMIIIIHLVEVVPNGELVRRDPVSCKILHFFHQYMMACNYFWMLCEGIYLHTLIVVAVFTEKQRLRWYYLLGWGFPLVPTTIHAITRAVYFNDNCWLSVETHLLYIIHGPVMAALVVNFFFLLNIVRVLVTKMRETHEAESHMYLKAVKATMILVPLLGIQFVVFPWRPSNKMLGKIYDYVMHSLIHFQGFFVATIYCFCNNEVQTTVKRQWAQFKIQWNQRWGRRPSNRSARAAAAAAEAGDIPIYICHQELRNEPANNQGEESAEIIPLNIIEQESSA
Summary of the method: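 Stable hCTR2 clone in RAMP-naïve COS7 cells stimulated 15 min at 37 °C with increasing peptide concentrations in Tyrode buffer pH 7.4 containing IBMX and 0.1% casein. cAMP in lysates measured by AlphaScreen; EC50 from 4-parameter logistic fit.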

[2] = Assessment of chemical stability (RP-HPLC normalized purity); format: physicochemical; details: for Normalized purity pH 4 (Table 5): pH 4, repeat of Example 6 for pairs with/without Asn-Asn at 21-22; for Normalized purity pH 6 (Table 5): pH 6, repeat of Example 6 for pairs with/without Asn-Asn at 21-22; for Normalized purity pH 7.5 (Table 5): pH 7.5, repeat of Example 6 for pairs with/without Asn-Asn at 21-22; for Normalized purity pH 9 (Table 5): pH 9, repeat of Example 6 for pairs with/without Asn-Asn at 21-22
Summary of the method: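 Peptides at 0.2 mg/ml in water adjusted to pH 4, 6, 7.5 or 9, incubated at 40° C for 7 days. Main-peak area-% by RP-HPLC (C8 ammonium formate or C18 TFA gradient, UV 220 nm), normalized to T=0 as 100.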

[3] = biological target: T2, human amylin receptor 3 (hAMYR3), hCTR2 co-expressed with hRAMP3 (Homo sapiens, UniProt O60896+P30988); assay: hAMYR3 cAMP assay (AlphaScreen) in COS7 cells; format: cell-based
T2 construct: expressed in transfected cells
T2 sequence (P30988 25-474): T1 sequence (P30988 25-474)
T2 sequence (O60896 24-148 partner): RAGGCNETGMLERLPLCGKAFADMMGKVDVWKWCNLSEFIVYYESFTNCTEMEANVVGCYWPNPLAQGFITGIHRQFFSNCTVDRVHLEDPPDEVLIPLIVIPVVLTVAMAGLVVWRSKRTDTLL
Summary of the method: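 Stable COS7 clone co-expressing hCTR2 and hRAMP3 was exposed to increasing peptide concentrations in Tyrode buffer (pH 7.4) with 100 µM IBMX and 0.1% casein for 15 min at 37 °C. Lysate cAMP was measured by AlphaScreen; EC50 came from 4-parameter logistic fitting.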

SMILES | EC50 ([1]; cAMP induction, COS7 cells expressing hCTR2, Table 1, read-out: hCTR2 EC50) [nM] | Normalized purity after 7 days, 40° C., pH 4 ([2]; pH 4, 0.2 mg/ml, 7 days, 40° C., Table 1) | Normalized purity after 7 days, 40° C., pH 6 ([2]; pH 6, 0.2 mg/ml, 7 days, 40° C., Table 1) | Normalized purity after 7 days, 40° C., pH 7.5 ([2]; pH 7.5, 0.2 mg/ml, 7 days, 40° C., Table 1) | Normalized purity after 7 days, 40° C., pH 9 ([2]; pH 9, 0.2 mg/ml, 7 days, 40° C., Table 1) | EC50 ([3]; cAMP induction, COS7 cells expressing hAMYR3, Table 1, read-out: hAMYR3 EC50) [nM] | EC50 [1] [nM] | Normalized purity pH 4 (Table 5) [2] | Normalized purity pH 6 (Table 5) [2] | Normalized purity pH 7.5 (Table 5) [2] | Normalized purity pH 9 (Table 5) [2] | EC50 [3] [nM]
CC[C@H](C)[C@@H](C(=O)N[C@@H](CC(C)C)C(=O)N[C@@H](CO)C(=O)N[C@@H](CO)C(=O)N[C@H](C(=O)N[C@@H](CCC(=O)O)C(=O)N[C@H](C(=O)NCC(=O)N[C@@H](CO)C(=O)N[C@@H](CC(N)=O)C(=O)N[C@H](C(=O)N1C[C@H](O)C[C@H]1C(N)=O)[C@@H](C)O)C(C)C)[C@@H](C)O)N(C)C(=O)[C@H](C)NC(=O)CN(C)C(=O)[C@H](Cc1ccccc1)NC(=O)[C@H](CCCNC(=N)N)NC(=O)[C@H](CCC(N)=O)NC(=O)[C@H](CC(C)C)NC(=O)[C@H](Cc1ccccc1)NC(=O)[C@H](CCCC(=O)O)NC(=O)[C@H](C)NC(=O)[C@H](CC(C)C)NC(=O)[C@H](CCCNC(=N)N)NC(=O)[C@H](CC(=O)O)NC(=O)[C@@H](NC(=O)[C@H](C)NC(=O)[C@@H]1CSSC[C@H](NC(=O)[C@H](CCCNC(=N)N)NC(=O)CC[C@H](NC(=O)CCCCCCCCCCCCCCCCCCC(=O)O)C(=O)O)C(=O)N[C@@H](CCC(N)=O)C(=O)N[C@@H]([C@@H](C)O)C(=O)N[C@@H](C)C(=O)N[C@@H]([C@@H](C)O)C(=O)N1)[C@@H](C)O [Compound 95, [19CD]-isoGlu-R-C( )-QTAT-C( )-ATDRLA-Aad-FLQRF-Gly(Me)-A-Ile(Me)-LSSTEVGSNT-Hyp-NH2] ({C20 diacid-γGlu}-RCQTATCATDRLA[Aad]FLQRF[Sar]A[NMeI]LSSTEVGSNT[Hyp]-NH2; disulfide 2-7) | 0.18 | A (A = >90%) | A (A = >90%) | A (A = >90%) | A (A = >90%) | 0.2 |  |  |  |  |  | 
CC[C@H](C)[C@@H](C(=O)N[C@@H](CC(C)C)C(=O)N[C@@H](CO)C(=O)N[C@@H](CO)C(=O)N[C@H](C(=O)N[C@@H](CCC(=O)O)C(=O)N[C@H](C(=O)NCC(=O)N[C@@H](CO)C(=O)N[C@@H](CC(N)=O)C(=O)N[C@H](C(=O)N1C[C@H](O)C[C@H]1C(N)=O)[C@@H](C)O)C(C)C)[C@@H](C)O)N(C)C(=O)[C@H](C)NC(=O)CN(C)C(=O)[C@H](Cc1ccccc1)NC(=O)[C@H](CC(N)=O)NC(=O)[C@H](CC(N)=O)NC(=O)[C@H](CO)NC(=O)[C@H](CO)NC(=O)[C@H](CCCNC(=N)N)NC(=O)[C@H](CCC(N)=O)NC(=O)[C@H](CC(C)C)NC(=O)[C@H](Cc1ccccc1)NC(=O)[C@H](CCCC(=O)O)NC(=O)[C@H](C)NC(=O)[C@H](CC(C)C)NC(=O)[C@H](CCCNC(=N)N)NC(=O)[C@H](CCC(=O)O)NC(=O)[C@@H](NC(=O)[C@H](C)NC(=O)[C@@H]1CSSC[C@H](NC(=O)[C@H](CCCNC(=N)N)NC(=O)CC[C@H](NC(=O)CCCCCCCCCCCCCCCCCCC(=O)O)C(=O)O)C(=O)NCC(=O)N[C@@H]([C@@H](C)O)C(=O)N[C@@H](C)C(=O)N[C@@H]([C@@H](C)O)C(=O)N1)[C@@H](C)O [Compound 98, [19CD]-isoGlu-R-C( )-GTAT-C( )-ATERLA-Aad-FLQRSSNNF-Gly(Me)-A-Ile(Me)-LSSTEVGSNT-Hyp-NH2, reference compound] ({C20 diacid-γGlu}-RCGTATCATERLA[Aad]FLQRSSNNF[Sar]A[NMeI]LSSTEVGSNT[Hyp]-NH2; disulfide 2-7) |  |  |  |  |  |  | 7.2 | A (A = >90%) | A (A = >90%) | B (B = 70-90%) | B (B = 70-90%) | 0.38
CC[C@H](C)[C@@H](C(=O)N[C@@H](CC(C)C)C(=O)N[C@@H](CO)C(=O)N[C@@H](CO)C(=O)N[C@H](C(=O)N[C@@H](CCC(=O)O)C(=O)N[C@H](C(=O)NCC(=O)N[C@@H](CO)C(=O)N[C@@H](CC(N)=O)C(=O)N[C@H](C(=O)N1C[C@H](O)C[C@H]1C(N)=O)[C@@H](C)O)C(C)C)[C@@H](C)O)N(C)C(=O)[C@H](C)NC(=O)CN(C)C(=O)[C@H](Cc1ccccc1)NC(=O)[C@H](CC(N)=O)NC(=O)[C@H](CC(N)=O)NC(=O)[C@H](CO)NC(=O)[C@H](CO)NC(=O)[C@H](CCCNC(=N)N)NC(=O)[C@H](CCC(N)=O)NC(=O)[C@H](CC(C)C)NC(=O)[C@H](Cc1ccccc1)NC(=O)[C@H](Cc1c[nH]cn1)NC(=O)[C@H](C)NC(=O)[C@H](CC(C)C)NC(=O)[C@H](CCCNC(=N)N)NC(=O)[C@H](CCC(=O)O)NC(=O)[C@@H](NC(=O)[C@H](C)NC(=O)[C@@H]1CSSC[C@H](NC(=O)[C@H](CCCNC(=N)N)NC(=O)CC[C@H](NC(=O)CCCCCCCCCCCCCCCCCCC(=O)O)C(=O)O)C(=O)N[C@@H](CCC(N)=O)C(=O)N[C@@H]([C@@H](C)O)C(=O)N[C@@H](C)C(=O)N[C@@H]([C@@H](C)O)C(=O)N1)[C@@H](C)O [Compound 99, [19CD]-isoGlu-R-C( )-QTAT-C( )-ATERLAHFLQRSSNNF-Gly(Me)-A-Ile(Me)-LSSTEVGSNT-Hyp-NH2, reference compound] ({C20 diacid-γGlu}-RCQTATCATERLAHFLQRSSNNF[Sar]A[NMeI]LSSTEVGSNT[Hyp]-NH2; disulfide 2-7) |  |  |  |  |  |  | 3.8 | A (A = >90%) | A (A = >90%) | B (B = 70-90%) | B (B = 70-90%) | 0.59
CC[C@H](C)[C@@H](C(=O)N[C@@H](CC(C)C)C(=O)N[C@@H](CO)C(=O)N[C@@H](CO)C(=O)N[C@H](C(=O)N[C@@H](CCC(=O)O)C(=O)N[C@H](C(=O)NCC(=O)N[C@@H](CO)C(=O)N[C@@H](CC(N)=O)C(=O)N[C@H](C(=O)N1C[C@H](O)C[C@H]1C(N)=O)[C@@H](C)O)C(C)C)[C@@H](C)O)N(C)C(=O)[C@H](C)NC(=O)CN(C)C(=O)[C@H](Cc1ccccc1)NC(=O)[C@H](CC(N)=O)NC(=O)[C@H](CC(N)=O)NC(=O)[C@H](CO)NC(=O)[C@H](CO)NC(=O)[C@H](CCCNC(=N)N)NC(=O)[C@H](CCC(N)=O)NC(=O)[C@H](CC(C)C)NC(=O)[C@H](Cc1ccccc1)NC(=O)[C@H](CCCC(=O)O)NC(=O)[C@H](C)NC(=O)[C@H](CC(C)C)NC(=O)[C@H](CCCNC(=N)N)NC(=O)[C@H](CC(=O)O)NC(=O)[C@@H](NC(=O)[C@H](C)NC(=O)[C@@H]1CSSC[C@H](NC(=O)[C@H](CCCNC(=N)N)NC(=O)CC[C@H](NC(=O)CCCCCCCCCCCCCCCCCCC(=O)O)C(=O)O)C(=O)N[C@@H](CCC(N)=O)C(=O)N[C@@H]([C@@H](C)O)C(=O)N[C@@H](C)C(=O)N[C@@H]([C@@H](C)O)C(=O)N1)[C@@H](C)O [Compound 100, [19CD]-isoGlu-R-C( )-QTAT-C( )-ATDRLA-Aad-FLQRSSNNF-Gly(Me)-A-Ile(Me)-LSSTEVGSNT-Hyp-NH2, reference compound] ({C20 diacid-γGlu}-RCQTATCATDRLA[Aad]FLQRSSNNF[Sar]A[NMeI]LSSTEVGSNT[Hyp]-NH2; disulfide 2-7) |  |  |  |  |  |  | 2.2 | A (A = >90%) | A (A = >90%) | A (A = >90%) | B (B = 70-90%) | 0.53
